Publication PMC6409085, “Three odorant-binding proteins are involved in the behavioral response of Sogatella furcifera to rice plant volatiles” (PeerJ, 2019)
pIC50: −log10 of the molar value. Values joined by “and” are separate entries in the source; they are usually repeats but may differ in a detail not shown here. Identical values can stand only once.

Experiments:
SfurOBP1 = SfurOBP1 (Sogatella furcifera, UniProt V5T8N5); test: biochemical; format: binding; details: for Fluorescence competitive binding assay, fluorescence intensity: OBP1, three replicate columns
Sequence of SfurOBP1 (V5T8N5 entry or part of it): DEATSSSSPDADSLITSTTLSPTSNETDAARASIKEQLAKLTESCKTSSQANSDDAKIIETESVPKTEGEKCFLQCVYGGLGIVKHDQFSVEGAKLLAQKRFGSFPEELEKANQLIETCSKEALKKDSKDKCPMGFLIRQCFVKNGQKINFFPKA
Procedure, shortened: (§1)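 First, 2.0 µM protein in 50 mM Tris-HCl (pH 7.4) was titrated with 1-NPN to obtain K1-NPN. Then odorants (2–20 µM final) competed against 2.0 µM 1-NPN, with fluorescence (ex 337 nm) recorded after 2 min. Ki was computed from IC50 via Ki = IC50/(1 + [1-NPN]/K1-NPN).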

SfurOBP11 = SfurOBP11 (Sogatella furcifera, UniProt V5T6E3); test: biochemical; format: binding
Sequence of SfurOBP11 (V5T6E3 entry or part of it): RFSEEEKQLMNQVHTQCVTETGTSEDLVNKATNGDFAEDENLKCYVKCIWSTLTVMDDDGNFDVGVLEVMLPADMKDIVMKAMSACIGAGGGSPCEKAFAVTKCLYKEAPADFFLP
Procedure, shortened: as §1

SfurOBP2 = SfurOBP2 (Sogatella furcifera, UniProt V5T759); test: biochemical; format: binding
Sequence of SfurOBP2 (V5T759 entry or part of it): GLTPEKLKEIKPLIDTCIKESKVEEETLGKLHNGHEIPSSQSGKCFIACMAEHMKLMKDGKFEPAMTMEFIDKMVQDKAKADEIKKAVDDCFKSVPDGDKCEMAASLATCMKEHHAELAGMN
Procedure, shortened: as §1

SfurOBP3 = SfurOBP3 (Sogatella furcifera, UniProt V5T818); test: biochemical; format: binding; details: for Fluorescence competitive binding assay, fluorescence intensity: OBP3, three replicate columns
Sequence of SfurOBP3 (V5T818 entry or part of it): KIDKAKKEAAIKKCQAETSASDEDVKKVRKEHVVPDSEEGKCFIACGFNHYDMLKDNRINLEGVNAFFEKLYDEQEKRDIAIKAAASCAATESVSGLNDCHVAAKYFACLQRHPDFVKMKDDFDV
Procedure, shortened: as §1

S. furcifera adults = test: Y-tube olfactometer behavioral trials; format: in vivo, Sogatella furcifera; details: odorant 50 µL/L vs hexane; adults
Procedure, shortened: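 Single S. furcifera adults (2 days post-emergence, starved 0.5 h) chose between odorant (100 µL of 50 µL/L on filter paper) and hexane control in a glass Y-tube, charcoal-filtered humidified air 300 mL/min per arm, 25 ± 1 °C, 50% RH. Choice scored if insect passed half an arm and stayed >1 min within 10 min; 45 insects per compound, chi-squared test.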

## COC(=O)c1ccccc1 [benzoic acid methylester]
SfurOBP1
  pIC50: < 4.70
SfurOBP1; ligand concentration 2 (μM)
  Fluorescence competitive binding assay, fluorescence intensity: 5064 and 4951 and 5158
SfurOBP1; ligand concentration 4 (μM)
  Fluorescence competitive binding assay, fluorescence intensity: 5979 and 6427 and 5531
SfurOBP1; ligand concentration 6 (μM)
  Fluorescence competitive binding assay, fluorescence intensity: 9023 and 8678 and 7700
SfurOBP1; ligand concentration 8 (μM)
  Fluorescence competitive binding assay, fluorescence intensity: 8709 and 6440 and 6910
SfurOBP1; ligand concentration 10 (μM)
  Fluorescence competitive binding assay, fluorescence intensity: 7708 and 6333 and 7083
SfurOBP1; ligand concentration 12 (μM)
  Fluorescence competitive binding assay, fluorescence intensity: 5895 and 6787 and 5523
SfurOBP1; ligand concentration 14 (μM)
  Fluorescence competitive binding assay, fluorescence intensity: 8915 and 6017 and 4981
SfurOBP1; ligand concentration 16 (μM)
  Fluorescence competitive binding assay, fluorescence intensity: 7008 and 5157 and 5392
SfurOBP1; ligand concentration 18 (μM)
  Fluorescence competitive binding assay, fluorescence intensity: 7131 and 8076 and 6232
SfurOBP1; ligand concentration 20 (μM)
  Fluorescence competitive binding assay, fluorescence intensity: 6422 and 6546 and 6873
SfurOBP11
  pIC50: < 4.70
SfurOBP11; ligand concentration 2, replicate 1
  Fluorescence intensity, fluorescence competitive binding assay, OBP11: 27311
SfurOBP11; ligand concentration 2, replicate 2
  Fluorescence intensity, fluorescence competitive binding assay, OBP11: 29257
SfurOBP11; ligand concentration 2, replicate 3
  Fluorescence intensity, fluorescence competitive binding assay, OBP11: 28341
SfurOBP11; ligand concentration 4, replicate 1
  Fluorescence intensity, fluorescence competitive binding assay, OBP11: 28195
SfurOBP11; ligand concentration 4, replicate 2
  Fluorescence intensity, fluorescence competitive binding assay, OBP11: 27454
SfurOBP11; ligand concentration 4, replicate 3
  Fluorescence intensity, fluorescence competitive binding assay, OBP11: 28935
SfurOBP11; ligand concentration 6, replicate 1
  Fluorescence intensity, fluorescence competitive binding assay, OBP11: 25204
SfurOBP11; ligand concentration 6, replicate 2
  Fluorescence intensity, fluorescence competitive binding assay, OBP11: 26496
SfurOBP11; ligand concentration 6, replicate 3
  Fluorescence intensity, fluorescence competitive binding assay, OBP11: 27787
SfurOBP11; ligand concentration 8, replicate 1
  Fluorescence intensity, fluorescence competitive binding assay, OBP11: 24731
SfurOBP11; ligand concentration 8, replicate 2
  Fluorescence intensity, fluorescence competitive binding assay, OBP11: 24972
SfurOBP11; ligand concentration 8, replicate 3
  Fluorescence intensity, fluorescence competitive binding assay, OBP11: 24489
SfurOBP11; ligand concentration 10, replicate 1
  Fluorescence intensity, fluorescence competitive binding assay, OBP11: 24285
SfurOBP11; ligand concentration 10, replicate 2
  Fluorescence intensity, fluorescence competitive binding assay, OBP11: 24217
SfurOBP11; ligand concentration 10, replicate 3
  Fluorescence intensity, fluorescence competitive binding assay, OBP11: 24352
SfurOBP11; ligand concentration 12, replicate 1
  Fluorescence intensity, fluorescence competitive binding assay, OBP11: 23537
SfurOBP11; ligand concentration 12, replicate 2
  Fluorescence intensity, fluorescence competitive binding assay, OBP11: 23314
SfurOBP11; ligand concentration 12, replicate 3
  Fluorescence intensity, fluorescence competitive binding assay, OBP11: 23760
SfurOBP11; ligand concentration 14, replicate 1
  Fluorescence intensity, fluorescence competitive binding assay, OBP11: 19900
SfurOBP11; ligand concentration 14, replicate 2
  Fluorescence intensity, fluorescence competitive binding assay, OBP11: 22587
SfurOBP11; ligand concentration 14, replicate 3
  Fluorescence intensity, fluorescence competitive binding assay, OBP11: 21306
SfurOBP11; ligand concentration 16, replicate 1
  Fluorescence intensity, fluorescence competitive binding assay, OBP11: 18401
SfurOBP11; ligand concentration 16, replicate 2
  Fluorescence intensity, fluorescence competitive binding assay, OBP11: 18544
SfurOBP11; ligand concentration 16, replicate 3
  Fluorescence intensity, fluorescence competitive binding assay, OBP11: 17724
SfurOBP11; ligand concentration 18, replicate 1
  Fluorescence intensity, fluorescence competitive binding assay, OBP11: 22003
SfurOBP11; ligand concentration 18, replicate 2
  Fluorescence intensity, fluorescence competitive binding assay, OBP11: 20975
SfurOBP11; ligand concentration 18, replicate 3
  Fluorescence intensity, fluorescence competitive binding assay, OBP11: 22765
SfurOBP11; ligand concentration 20, replicate 1
  Fluorescence intensity, fluorescence competitive binding assay, OBP11: 21640
SfurOBP11; ligand concentration 20, replicate 2
  Fluorescence intensity, fluorescence competitive binding assay, OBP11: 22200
SfurOBP11; ligand concentration 20, replicate 3
  Fluorescence intensity, fluorescence competitive binding assay, OBP11: 21920
SfurOBP2
  pIC50: < 4.70
SfurOBP2; ligand concentration 2 (unit not given), replicate column 1 of 3
  Fluorescence competitive binding assay, OBP2 (raw fluorescence reading): 20302
SfurOBP2; ligand concentration 2 (unit not given), replicate column 2 of 3
  Fluorescence competitive binding assay, OBP2 (raw fluorescence reading): 19349
SfurOBP2; ligand concentration 2 (unit not given), replicate column 3 of 3
  Fluorescence competitive binding assay, OBP2 (raw fluorescence reading): 19856
SfurOBP2; ligand concentration 4 (unit not given), replicate column 1 of 3
  Fluorescence competitive binding assay, OBP2 (raw fluorescence reading): 20922
SfurOBP2; ligand concentration 4 (unit not given), replicate column 2 of 3
  Fluorescence competitive binding assay, OBP2 (raw fluorescence reading): 22649
SfurOBP2; ligand concentration 4 (unit not given), replicate column 3 of 3
  Fluorescence competitive binding assay, OBP2 (raw fluorescence reading): 23660
SfurOBP2; ligand concentration 6 (unit not given), replicate column 1 of 3
  Fluorescence competitive binding assay, OBP2 (raw fluorescence reading): 19982
SfurOBP2; ligand concentration 6 (unit not given), replicate column 2 of 3
  Fluorescence competitive binding assay, OBP2 (raw fluorescence reading): 19598
SfurOBP2; ligand concentration 6 (unit not given), replicate column 3 of 3
  Fluorescence competitive binding assay, OBP2 (raw fluorescence reading): 20363
SfurOBP2; ligand concentration 8 (unit not given), replicate column 1 of 3
  Fluorescence competitive binding assay, OBP2 (raw fluorescence reading): 18016
SfurOBP2; ligand concentration 8 (unit not given), replicate column 2 of 3
  Fluorescence competitive binding assay, OBP2 (raw fluorescence reading): 17876
SfurOBP2; ligand concentration 8 (unit not given), replicate column 3 of 3
  Fluorescence competitive binding assay, OBP2 (raw fluorescence reading): 18155
SfurOBP2; ligand concentration 10 (unit not given), replicate column 1 of 3
  Fluorescence competitive binding assay, OBP2 (raw fluorescence reading): 17866
SfurOBP2; ligand concentration 10 (unit not given), replicate column 2 of 3
  Fluorescence competitive binding assay, OBP2 (raw fluorescence reading): 16967
SfurOBP2; ligand concentration 10 (unit not given), replicate column 3 of 3
  Fluorescence competitive binding assay, OBP2 (raw fluorescence reading): 17417
SfurOBP2; ligand concentration 12 (unit not given), replicate column 1 of 3
  Fluorescence competitive binding assay, OBP2 (raw fluorescence reading): 14659
SfurOBP2; ligand concentration 12 (unit not given), replicate column 2 of 3
  Fluorescence competitive binding assay, OBP2 (raw fluorescence reading): 16003
SfurOBP2; ligand concentration 12 (unit not given), replicate column 3 of 3
  Fluorescence competitive binding assay, OBP2 (raw fluorescence reading): 15331
SfurOBP2; ligand concentration 14 (unit not given), replicate column 1 of 3
  Fluorescence competitive binding assay, OBP2 (raw fluorescence reading): 15808
SfurOBP2; ligand concentration 14 (unit not given), replicate column 2 of 3
  Fluorescence competitive binding assay, OBP2 (raw fluorescence reading): 14578
SfurOBP2; ligand concentration 14 (unit not given), replicate column 3 of 3
  Fluorescence competitive binding assay, OBP2 (raw fluorescence reading): 16066
SfurOBP2; ligand concentration 16 (unit not given), replicate column 1 of 3
  Fluorescence competitive binding assay, OBP2 (raw fluorescence reading): 13829
SfurOBP2; ligand concentration 16 (unit not given), replicate column 2 of 3
  Fluorescence competitive binding assay, OBP2 (raw fluorescence reading): 13659
SfurOBP2; ligand concentration 16 (unit not given), replicate column 3 of 3
  Fluorescence competitive binding assay, OBP2 (raw fluorescence reading): 13740
SfurOBP2; ligand concentration 18 (unit not given), replicate column 1 of 3
  Fluorescence competitive binding assay, OBP2 (raw fluorescence reading): 13696
SfurOBP2; ligand concentration 18 (unit not given), replicate column 2 of 3
  Fluorescence competitive binding assay, OBP2 (raw fluorescence reading): 13929
SfurOBP2; ligand concentration 18 (unit not given), replicate column 3 of 3
  Fluorescence competitive binding assay, OBP2 (raw fluorescence reading): 14161
SfurOBP2; ligand concentration 20 (unit not given), replicate column 1 of 3
  Fluorescence competitive binding assay, OBP2 (raw fluorescence reading): 14205
SfurOBP2; ligand concentration 20 (unit not given), replicate column 2 of 3
  Fluorescence competitive binding assay, OBP2 (raw fluorescence reading): 14645
SfurOBP2; ligand concentration 20 (unit not given), replicate column 3 of 3
  Fluorescence competitive binding assay, OBP2 (raw fluorescence reading): 13761
SfurOBP3
  pIC50: < 4.70
SfurOBP3; ligand concentration 2
  Fluorescence competitive binding assay, fluorescence intensity: 65046 and 56813 and 65508
SfurOBP3; ligand concentration 4
  Fluorescence competitive binding assay, fluorescence intensity: 67380 and 59779 and 65465
SfurOBP3; ligand concentration 6
  Fluorescence competitive binding assay, fluorescence intensity: 60647 and 61139 and 65169
SfurOBP3; ligand concentration 8
  Fluorescence competitive binding assay, fluorescence intensity: 62761 and 59088 and 65223
SfurOBP3; ligand concentration 10
  Fluorescence competitive binding assay, fluorescence intensity: 58066 and 60267 and 58488
SfurOBP3; ligand concentration 12
  Fluorescence competitive binding assay, fluorescence intensity: 53979 and 46844 and 52174
SfurOBP3; ligand concentration 14
  Fluorescence competitive binding assay, fluorescence intensity: 52567 and 46884 and 49119
SfurOBP3; ligand concentration 16
  Fluorescence competitive binding assay, fluorescence intensity: 43090 and 45767 and 42573
SfurOBP3; ligand concentration 18
  Fluorescence competitive binding assay, fluorescence intensity: 48410 and 52387 and 52599
SfurOBP3; ligand concentration 20
  Fluorescence competitive binding assay, fluorescence intensity: 47608 and 41929 and 45047
S. furcifera adults
  number of insects choosing hexane arm: 10
  number of insects choosing volatilies arm: 9
  number of insects failed (no choice): 20
